Data from US11254668B2, “Pyrazolo[1,5-A]pyrazin-4-yl and related derivatives” (Pfizer Inc., priority 2017, dated 2022).

What was measured:
Type in all cases: biochemical
[1] = target: JAK3 (Homo sapiens (Human), UniProt P52333); assay: JAK Caliper Enzyme Assay at 1 mM ATP, JAK3
How it was run: (§1)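 Recombinant human kinase domains phosphorylated a fluorescent synthetic peptide at room temperature, with enzyme level and time tuned to 20% to 30% conversion; EDTA stop buffer ended reactions. Mobility-shift separation gave percent product from peak heights, normalised to DMSO and positive controls, and IC50s came from concentration–effect curves.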

[2] = target: JAK2 (Homo sapiens (Human), UniProt O60674); assay: JAK Caliper Enzyme Assay at 1 mM ATP, JAK2
JAK2, sequence (O60674 849-1124): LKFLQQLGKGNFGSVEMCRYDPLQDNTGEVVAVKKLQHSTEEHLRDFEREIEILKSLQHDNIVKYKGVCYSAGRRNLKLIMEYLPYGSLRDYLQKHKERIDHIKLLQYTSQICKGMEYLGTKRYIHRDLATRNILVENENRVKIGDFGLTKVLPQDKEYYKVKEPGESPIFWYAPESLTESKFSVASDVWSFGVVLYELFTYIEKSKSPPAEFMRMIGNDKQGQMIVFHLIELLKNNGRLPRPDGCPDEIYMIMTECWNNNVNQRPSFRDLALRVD
How it was run: (§2)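 Read-out is Caliper LabChip mobility-shift separation of phosphorylated from unphosphorylated fluorescent peptide after EDTA termination. Each JAK kinase domain (human, recombinant) runs at 1 mM ATP at room temperature, adjusted for 20–30% turnover. Inhibition is normalized to DMSO and positive-control wells and plotted against concentration.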

[3] = target: TYK2 (Homo sapiens (Human), UniProt P29597); assay: JAK Caliper Enzyme Assay at 1 mM ATP, TYK2
TYK2, sequence (P29597 897-1176): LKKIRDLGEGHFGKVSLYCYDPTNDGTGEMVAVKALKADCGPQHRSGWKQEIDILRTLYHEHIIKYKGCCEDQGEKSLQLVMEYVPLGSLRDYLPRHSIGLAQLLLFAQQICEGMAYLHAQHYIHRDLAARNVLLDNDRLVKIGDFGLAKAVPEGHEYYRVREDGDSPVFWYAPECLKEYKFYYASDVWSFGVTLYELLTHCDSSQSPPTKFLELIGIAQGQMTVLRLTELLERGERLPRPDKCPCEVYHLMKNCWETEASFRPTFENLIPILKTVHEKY
How it was run: as §2

[4] = target: JAK1 (Homo sapiens (Human), UniProt P23458); assay: JAK Caliper Enzyme Assay at 1 mM ATP, JAK1
JAK1, sequence (P23458 875-1153): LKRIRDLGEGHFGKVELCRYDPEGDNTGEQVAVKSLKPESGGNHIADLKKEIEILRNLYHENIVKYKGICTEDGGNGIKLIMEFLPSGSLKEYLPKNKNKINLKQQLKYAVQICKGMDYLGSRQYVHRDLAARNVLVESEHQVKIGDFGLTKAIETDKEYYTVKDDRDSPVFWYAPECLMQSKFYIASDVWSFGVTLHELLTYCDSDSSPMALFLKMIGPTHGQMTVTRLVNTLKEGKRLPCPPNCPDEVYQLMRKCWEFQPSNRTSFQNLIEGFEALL
How it was run: as §1

JAK3, sequence (P52333 822-1111): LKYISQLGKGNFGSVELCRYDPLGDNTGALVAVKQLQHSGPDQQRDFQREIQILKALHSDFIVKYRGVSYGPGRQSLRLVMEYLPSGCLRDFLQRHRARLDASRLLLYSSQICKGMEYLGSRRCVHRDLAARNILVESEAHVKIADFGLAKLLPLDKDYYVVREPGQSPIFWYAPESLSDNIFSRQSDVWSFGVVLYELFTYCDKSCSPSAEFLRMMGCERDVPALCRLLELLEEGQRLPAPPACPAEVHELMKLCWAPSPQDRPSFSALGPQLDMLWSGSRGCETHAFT

| Structure (SMILES) | IC50 [1] [nM] | IC50 [2] [nM] | IC50 [3] [nM] | IC50 [4] [nM] |
| --- | --- | --- | --- | --- |
| Cc1nc(-c2cc(-c3cnn([C@]4(CC#N)C[C@@H](C#N)C4)n3)c3cccnc3c2)c[nH]1 [Example 337, trans-3-(cyanomethyl)-3-{4-[7-(2-methyl-1H-imidazol-4-yl)quinolin-5-yl]-2H-1,2,3-triazol-2-yl}cyclobutanecarbonitrile] | > 10000 | 243 | 33 | 2910 |
| Cn1nncc1-c1cc(-c2cnn([C@]3(CC#N)C[C@H](C#N)C3)n2)c2cccnc2c1 [Example 338, cis-3-(cyanomethyl)-3-{4-[7-(1-methyl-1H-1,2,3-triazol-5-yl)quinolin-5-yl]-2H-1,2,3-triazol-2-yl}cyclobutanecarbonitrile] | > 10000 | > 10000 | 2460 | > 10000 |
| Cn1cc(-c2cc(-c3cnn([C@]4(CC#N)C[C@@H](C#N)C4)n3)c3cccnc3c2)nn1 [Example 339, trans-3-(cyanomethyl)-3-{4-[7-(1-methyl-1H-1,2,3-triazol-4-yl)quinolin-5-yl]-2H-1,2,3-triazol-2-yl}cyclobutanecarbonitrile] | > 10000 | 146 | 36 | 8370 |
| N#CCC1(n2ncc(-c3cc(-c4nc(CO)cs4)cc4ncccc34)n2)CC(C#N)C1 (stereo not drawn) [Example 340, cis-3-(cyanomethyl)-3-(4-{7-[4-(hydroxymethyl)-1,3-thiazol-2-yl]quinolin-5-yl}-2H-1,2,3-triazol-2-yl)cyclobutanecarbonitrile] | 8910 | 94 | 13 | 432 |
| N#CC[C@]1(n2ncc(-c3cc(-c4nc(CO)cs4)cc4ncccc34)n2)C[C@H](C#N)C1 [Example 341, trans-3-(cyanomethyl)-3-(4-{7-[4-(hydroxymethyl)-1,3-thiazol-2-yl]quinolin-5-yl}-2H-1,2,3-triazol-2-yl)cyclobutanecarbonitrile] | > 10000 | 649 | 57 | 3240 |
| N#CC[C@]1(n2ncc(-c3cc(-c4cnc(CO)s4)cc4ncccc34)n2)C[C@H](C#N)C1 [Example 342, trans-3-(cyanomethyl)-3-(4-{7-[2-(hydroxymethyl)-1,3-thiazol-5-yl]quinolin-5-yl}-2H-1,2,3-triazol-2-yl)cyclobutanecarbonitrile] | > 10000 | 990 | 135 | 2580 |
| N#CC[C@]1(n2ncc(-c3cc(-c4ncc(CO)s4)cc4ncccc34)n2)C[C@H](C#N)C1 [Example 343, trans-3-(cyanomethyl)-3-(4-{7-[5-(hydroxymethyl)-1,3-thiazol-2-yl]quinolin-5-yl}-2H-1,2,3-triazol-2-yl)cyclobutanecarbonitrile] | > 10000 | 660 | 65 | 3340 |
| N#CCC1(n2ncc(-c3cc(-c4scnc4CO)cc4ncccc34)n2)CC(C#N)C1 (stereo not drawn) [Example 344, trans-3-(cyanomethyl)-3-(4-{7-[4-(hydroxymethyl)-1,3-thiazol-5-yl]quinolin-5-yl}-2H-1,2,3-triazol-2-yl)cyclobutanecarbonitrile] | > 10000 | > 10000 | 776 | > 10000 |
| N#CC[C@]1(n2ncc(-c3cc(-c4cc(CO)ns4)cc4ncccc34)n2)C[C@H](C#N)C1 [Example 345, trans-3-(cyanomethyl)-3-(4-{7-[3-(hydroxymethyl)-1,2-thiazol-5-yl]quinolin-5-yl}-2H-1,2,3-triazol-2-yl)cyclobutanecarbonitrile] | > 10000 | 1860 | 249 | 3810 |
| N#CCC1(n2ncc(-c3cc(-c4ccccn4)cc4ncccc34)n2)CC(C#N)C1 (stereo not drawn) [Example 346, cis-3-(cyanomethyl)-3-{4-[7-(pyridin-2-yl)quinolin-5-yl]-2H-1,2,3-triazol-2-yl}cyclobutanecarbonitrile] | > 10000 | 123 | 23 | 1080 |
| N#CC[C@]1(n2ncc(-c3cc(-c4ccc(F)cn4)cc4ncccc34)n2)C[C@@H](C#N)C1 [Example 347, cis-3-(cyanomethyl)-3-{4-[7-(5-fluoropyridin-2-yl)quinolin-5-yl]-2H-1,2,3-triazol-2-yl}cyclobutanecarbonitrile] | > 10000 | 114 | 26 | 1200 |
| N#CCC1(n2ncc(-c3cc(-c4ccc(F)cn4)cc4ncccc34)n2)CC(C#N)C1 (stereo not drawn) [Example 348, trans-3-(cyanomethyl)-3-{4-[7-(5-fluoropyridin-2-yl)quinolin-5-yl]-2H-1,2,3-triazol-2-yl}cyclobutanecarbonitrile] | > 10000 | 876 | 143 | > 10000 |
| N#CCC1(n2ncc(-c3cc(-c4ccc(C(N)=O)cn4)cc4ncccc34)n2)CC(C#N)C1 (stereo not drawn) [Example 351, 6-(5-{2-[trans-3-cyano-1-(cyanomethyl)cyclobutyl]-2H-1,2,3-triazol-4-yl}quinolin-7-yl)pyridine-3-carboxamide] | > 10000 | 688 | 131 | > 10000 |
| N#CCC1(n2ncc(-c3cc(-c4ccc(C(N)=O)cn4)cc4ncccc34)n2)CC(C#N)C1 (stereo not drawn) [Example 352, 6-(5-{2-[cis-3-cyano-1-(cyanomethyl)cyclobutyl]-2H-1,2,3-triazol-4-yl}quinolin-7-yl)pyridine-3-carboxamide] | > 10000 | 106 | 27 | 825 |
| N#CCC1(n2ncc(-c3cc(-c4cc(C(N)=O)ccn4)cc4ncccc34)n2)CC(C#N)C1 (stereo not drawn) [Example 353, 2-(5-{2-[cis-3-cyano-1-(cyanomethyl)cyclobutyl]-2H-1,2,3-triazol-4-yl}quinolin-7-yl)pyridine-4-carboxamide] | > 10000 | > 10000 | 1570 | 9630 |
| N#CC[C@]1(n2ncc(-c3cc(-c4cc(C(N)=O)ccn4)cc4ncccc34)n2)C[C@@H](C#N)C1 [Example 354, 2-(5-{2-[trans-3-cyano-1-(cyanomethyl)cyclobutyl]-2H-1,2,3-triazol-4-yl}quinolin-7-yl)pyridine-4-carboxamide] | > 10000 | > 10000 | 7240 | > 10000 |
| Cc1ccc(-c2cc(-c3cnn(C4(CC#N)CN(S(C)(=O)=O)C4)n3)c3cccnc3c2)cn1 [Example 355, [3-{4-[7-(6-methylpyridin-3-yl)quinolin-5-yl]-2H-1,2,3-triazol-2-yl}-1-(methylsulfonyl)azetidin-3-yl]acetonitrile] | > 10000 | 1580 | 137 | > 10000 |
| Cc1cc(-c2cc(-c3cnn(C4(CC#N)CN(S(C)(=O)=O)C4)n3)c3cccnc3c2)ccn1 [Example 356, [3-{4-[7-(2-methylpyridin-4-yl)quinolin-5-yl]-2H-1,2,3-triazol-2-yl}-1-(methylsulfonyl)azetidin-3-yl]acetonitrile] | > 10000 | 973 | 130 | > 10000 |
| N#CC[C@]1(n2ncc(-c3cc(-c4cccc(N)n4)cc4ncccc34)n2)C[C@H](C#N)C1 [Example 357, trans-3-{4-[7-(6-aminopyridin-2-yl)quinolin-5-yl]-2H-1,2,3-triazol-2-yl}-3-(cyanomethyl)cyclobutanecarbonitrile] | > 10000 | 670 | 99 | 2580 |
| N#CC[C@]1(n2ncc(-c3cc(-c4cccc(N)n4)cc4ncccc34)n2)C[C@@H](C#N)C1 [Example 358, cis-3-{4-[7-(6-aminopyridin-2-yl)quinolin-5-yl]-2H-1,2,3-triazol-2-yl}-3-(cyanomethyl)cyclobutanecarbonitrile] | 3760 | 92 | 20 | 404 |
| N#CC[C@]1(n2ncc(-c3cc(-c4ccc(N)cn4)cc4ncccc34)n2)C[C@@H](C#N)C1 [Example 359, cis-3-{4-[7-(5-aminopyridin-2-yl)quinolin-5-yl]-2H-1,2,3-triazol-2-yl}-3-(cyanomethyl)cyclobutanecarbonitrile] | 6700 | 69 | 13 | 321 |
| N#CC[C@]1(n2ncc(-c3cc(-c4ccc(N)cn4)cc4ncccc34)n2)C[C@H](C#N)C1 [Example 360, trans-3-{4-[7-(5-aminopyridin-2-yl)quinolin-5-yl]-2H-1,2,3-triazol-2-yl}-3-(cyanomethyl)cyclobutanecarbonitrile] | > 10000 | 354 | 40 | 1720 |
| CS(=O)(=O)N1CC(CC#N)(n2ncc(-c3cc(-c4cccnc4N)cc4ncccc34)n2)C1 [Example 361, [3-{4-[7-(2-aminopyridin-3-yl)quinolin-5-yl]-2H-1,2,3-triazol-2-yl}-1-(methylsulfonyl)azetidin-3-yl]acetonitrile] | > 10000 | > 10000 | 3630 | > 10000 |
| N#CC[C@]1(n2ncc(-c3cc(-c4cccnc4N)cc4ncccc34)n2)C[C@@H](C#N)C1 [Example 362, cis-3-{4-[7-(2-aminopyridin-3-yl)quinolin-5-yl]-2H-1,2,3-triazol-2-yl}-3-(cyanomethyl)cyclobutanecarbonitrile] | > 10000 | > 10000 | 1960 | > 10000 |
| N#CC[C@]1(n2ncc(-c3cc(-c4cccnc4N)cc4ncccc34)n2)C[C@H](C#N)C1 [Example 363, trans-3-{4-[7-(2-aminopyridin-3-yl)quinolin-5-yl]-2H-1,2,3-triazol-2-yl}-3-(cyanomethyl)cyclobutanecarbonitrile] | > 10000 | > 10000 | 6840 | > 10000 |
